For the series the following is noted: 101.33 kPa, Liquid, Pycnometric method.

SMILES strings stand for the structures. Numbers after ± are expanded uncertainties.

For `CCCC[n+]1ccn(C)c1.O=S(=O)([N-]S(=O)(=O)C(F)(F)F)C(F)(F)F`, the mass density is recorded as 1443.6 ± 6.1 kg/m3 (288.2 K); 1439.7 ± 6.1 kg/m3 (293.2 K); 1435.6 ± 6 kg/m3 (298.2 K); 1431.3 ± 6 kg/m3 (303.2 K); 1426.8 ± 6 kg/m3 (308.2 K); 1421.9 ± 6 kg/m3 (313.2 K).
As for `CCCCn1cc[n+](C)c1.F[P-](F)(F)(F)(F)F` [1-butyl-3-methylimidazolium hexafluorophosphate], the mass density (288.2 K) was found to be 1375.8 ± 2.8 kg/m3; the mass density (293.2 K) came to 1371.5 ± 2.8 kg/m3; the mass density (298.2 K) is 1368.4 ± 2.8 kg/m3; the mass density (303.2 K) turned out to be 1363.5 ± 2.8 kg/m3; the mass density (308.2 K) worked out at 1359.3 ± 2.8 kg/m3; the mass density (313.2 K) is reported as 1355 ± 2.8 kg/m3.
On to `CCCCn1cc[n+](C)c1.F[B-](F)(F)F` [1-butyl-3-methylimidazolium tetrafluoroborate], for which the mass density reads like this: (288.2 K) 1205.4 ± 2.5 kg/m3; (293.2 K) 1202.1 ± 2.5 kg/m3; (298.2 K) 1199.4 ± 2.5 kg/m3; (303.2 K) 1195.4 ± 2.5 kg/m3; (308.2 K) 1191.7 ± 2.5 kg/m3; (313.2 K) 1188 ± 2.5 kg/m3.

Broadly, the mass density is the mass of a sample divided by its volume.

The record behind these values is the NIST ThermoML archive (doi:10.1021/je501083d).
